From patent US4868114A, “Method for elevating glutathione levels” (Regents of the University of Minnesota, priority 1989, dated 1989)

Experiments:
rat hepatocytes [1] = assay: Stimulation of glutathione (GSH) biosynthesis in isolated rat hepatocytes by L-cysteine prodrugs; assay type: cell-based; settings: for [GSH] ± SE: control 35.4 ± 0.78
Protocol: (§1) Rat hepatocytes were isolated following the methods of P. O. Seglen, Exper. […] After final plating, the hepatocytes were maintained in culture for 24 hr prior to use. Only primary cultures were used throughout the studies. The hepatocytes were incubated with the cysteine prodrugs for a 4-hr period, and after removal of media by aspiration, the cells were rinsed with cold phosphate-buffered saline and deproteinized with 5% sulfosalicylic acid. […] For the inhibition studies with BSO, the cells were pre-exposed to BSO (0.20 mM) before treatment with the L-cysteine prodrugs.

rat hepatocytes [2] = assay: Inhibitory effect of buthionine sulfoximine (BSO) on GSH elevation elicited by L-cysteine prodrugs in rat hepatocytes; assay type: cell-based; settings: for [GSH] ± SE: rat hepatocytes pre-exposed to BSO 0.2 mM, 4 hr; for [GSH] Rel. to Controls: rat hepatocytes, BSO 0.2 mM, 240 min
Protocol: as §1

[3] = test system: acetaminophen-induced hepatotoxicity; assay: Protection against acetaminophen-induced hepatotoxicity in mice; assay type: in vivo; settings: prodrug 2.45 mmole/kg ip 30 min later; for Survival (48 hr) (%) / Survival (48 hr) (Number): LD90 acetaminophen 750 mg/kg ip; for Survival (48 hr) (Number): survivors/total; for Number of Animals with necrosis 0 / Number of Animals with necrosis 1+ / Number of Animals with necrosis 2+ / Number of Animals with necrosis 3+ / Number of Animals with necrosis 4+: LD90 acetaminophen ip, liver histology, Mitchell rating
Protocol: Compounds 1a through 1h were evaluated in a mouse model for their ability to protect against the hepatotoxic action of acetaminophen. The experimental protocol involved the administration of an LD90 dose of acetaminophen, followed 30 min. later by the prodrug as potential protective agent. Toxicity was assessed based on overall survival data at 48 hrs, as well as on histological criteria of hepatocellular damage using the rating system of J. R. Mitchell et al., J. Pharmacol. Exp. Ther., 187, 185 (1973).
The prodrugs of L-cysteine were examined for their ability to protect against acetaminophen-induced hepatotoxicity in mice essentially as described by H. T. Nagasawa et al., J. Med. Chem., 25, 489 (1982). Male Swiss-Webster mice (19 to 31 g) were fasted overnight but given free access to water. An LD90 dose of acetaminophen (750 mg/kg, 4.97 mmol/kg, ip) was then administered, followed 30 min later by a 2.45 mmole/kg ip dose of the L-cysteine prodrug. All injection solutions were freshly prepared in sterile water, except where solubility problems required the use of sterile 0.1N aqueous NaHCO3 or a slurry of the prodrug in 2% aqueous carboxymethylcellulose (CMC). The animals were then given food and water ad libitum and were observed over a 48-hr period.
Represenative sections from the central lobe of the liver were obtained from those animals found dead at 12, 24 and 48 hr. Survivors at 48 hr were sacrificed by cervical dislocation and the liver sections were similarly excised and sectioned. All specimens were fixed on 10% buffered formalin and in Form-a-Less (PMP, Inc., San Diego, CA) and stained with hematoxylin and eosin. The extent of hepatic necrosis was evaluated histologically by an investigator who had no knowledge of the experimental protocols or sample identity.

[4] = test system: heptatotoxic dosages of acetaminophen; settings: previous studies (Nagasawa 1984; Meister US 4,335,210); cited from earlier work
[5] = Hepatocyte, rat hepatocytes, prodrug 1.0 mM, 4 hr incubation, read-out: [GSH] Rel. to Controls
[6] = rat hepatocytes, prodrug 1.0 mM, 4 hr incubation

| Compound | fold induction at 1000 µM (rat hepatocytes [1]; [5]) | [GSH] ± SE (rat hepatocytes [1]; [6]) | [GSH] ± SE (rat hepatocytes [2]; prodrug 1.0 mM) | [GSH] Rel. to Controls (rat hepatocytes [2]; prodrug 1.0 mM) | Survival (48 hr) (%) [3] | Survival (48 hr) (Number) [3] | Number of Animals with necrosis 0 [3] | Number of Animals with necrosis 1+ [3] | Number of Animals with necrosis 2+ [3] | Number of Animals with necrosis 3+ [3] | Number of Animals with necrosis 4+ [3] | protection of mice from hepatotoxic dosages of acetaminophen [4] | [GSH] Rel. to Controls (rat hepatocytes [1]; [6]) | fold induction at 2500 µM (rat hepatocytes [1]; Rattus norvegicus, Hepatocyte, 4 h, read-out: [GSH] Rel. to Controls) | [GSH] ± SE (rat hepatocytes [1]; rat hepatocytes, 2.5 mM, 4 hr incubation) | raised GSH levels by (rat hepatocytes [1]; rat hepatocytes, 2.5 times the concentration of the thiazolidine prodrugs) | [GSH] ± SE (rat hepatocytes [2]; 2.5 mM) | [GSH] Rel. to Controls (rat hepatocytes [2]; 2.5 mM) |
| --- | --- | --- | --- | --- | --- | --- | --- | --- | --- | --- | --- | --- | --- | --- | --- | --- | --- | --- |
| O=C(O)[C@@H]1CSC([C@@H](O)[C@H](O)[C@H](O)CO)N1 (mixture of isomers) [AraCys, 2(R,S)-D-arabino-1',2',3',4'-Tetrahydroxybutylthiazolidine-4(R)-carboxylic Acid] | 1.2 | 42.9 ± 2.17 nmol/10^6 cells | 19.5 ± 3.75 nmol/10^6 cells | 0.6 | 40% | 4/10 | 0 | 1 | 2 | 0 | 7 | – | – | – | – | – | – | – |
| CC1N[C@H](C(=O)O)CS1 (stereo partly drawn) [2(R,S)-methylthiazolidine-4R-carboxylate] | – | – | – | – | – | – | – | – | – | – | – | can protect mice | – | – | – | – | – | – |
| CCCCCC1N[C@H](C(=O)O)CS1 (stereo partly drawn) [2(R,S)-n-pentyl] | – | – | – | – | – | – | – | – | – | – | – | can protect mice | – | – | – | – | – | – |
| CCCC1N[C@H](C(=O)O)CS1 (stereo partly drawn) [2(R,S)-n-propyl-] | – | – | – | – | – | – | – | – | – | – | – | can protect mice | – | – | – | – | – | – |
| O=C(O)[C@@H]1CSC([C@H](O)[C@@H](O)[C@@H](O)[C@H](O)CO)N1 (stereo partly drawn) [GalCys, 2(R,S)-D-galacto-1',2',3',4',5'-Pentahydroxypentylthiazolidine-4(R)-carboxylic Acid] | 1.6 | 58.0 ± 2.00 nmol/10^6 cells | 23.2 ± 2.56 nmol/10^6 cells | 0.7 | 60% | 6/10 | 1 | 3 | 2 | 0 | 4 | – | – | – | – | – | – | – |
| O=C(O)[C@@H]1CSC([C@H](O)[C@@H](O)[C@H](O)[C@H](O)CO)N1 (stereo partly drawn) [GlcCys, 2(R,S)-D-gluco-1',2',3',4',5'-Pentahydroxypentylthiazolidine-4(R)-carboxylic Acid] | 2.1 | 75.2 ± 2.15 nmol/10^6 cells | 25.4 ± 0.99 nmol/10^6 cells | 0.7 | 30% | 3/10 | 0 | 2 | 0 | 1 | 7 | – | over twice | – | – | – | – | – |
| O=C(O)[C@@H]1CSC([C@H](O)CO)N1 (stereo partly drawn) [GlycCys, 2(R,S)-D-glycero-1',2'-Dihydroxyethylthiazolidine-4(R)carboxylic Acid] | 1.3 | 46.1 ± 1.10 nmol/10^6 cells | 18.3 ± 6.41 nmol/10^6 cells | 0.5 | 30% | 3/10 | 0 | 0 | 1 | 2 | 7 | – | – | – | – | – | – | – |
| O=C1N[C@H](C(=O)O)CS1 [L-2-oxothiazolidine-4-carboxylate] | – | – | – | – | – | – | – | – | – | – | – | can protect mice | – | – | – | – | – | – |
| O=C(O)[C@@H]1CSC([C@@H](O)[C@@H](O)[C@H](O)CO)N1 (stereo partly drawn) [LyxCys, 2(R,S)-D-lyxo-1',2',3',4'-Tetrahydroxybutylthiazolidine-4(R)-carboxylic Acid] | 1.3 | 45.9 ± 1.95 nmol/10^6 cells | 22.4 ± 1.98 nmol/10^6 cells | 0.6 | 30% | 3/10 | 0 | 0 | 0 | 1 | 9 | – | – | – | – | – | – | – |
| O=C(O)[C@@H]1CSC([C@@H](O)[C@@H](O)[C@H](O)[C@H](O)CO)N1 (stereo partly drawn) [ManCys, 2(R,S)-D-manno-1',2',3',4',5'-Pentahydroxypentylthiazolidine-4(R)-carboxylic Acid] | 1.6 | 57.8 ± 0.87 nmol/10^6 cells | 18.9 ± 1.87 nmol/10^6 cells | 0.5 | 40% | 4/10 | 3 | 0 | 1 | 0 | 6 | – | – | – | – | – | – | – |
| CC(=O)N[C@@H](CS)C(=O)O [NAC, N-Acetyl-L-cysteine, reference compound] | – | – | – | – | 94% | 17/18 | 13 | 3 | 0 | 1 | 1 | can protect mice | – | 1.3 | 45.8 ± 1.27 nmol/10^6 cells | 30% | 25.5 ± 1.59 nmol/10^6 cells | 0.7 |
| O=C(O)[C@@H]1CSC([C@H](O)[C@H](O)[C@H](O)CO)N1 (stereo partly drawn) [RibCys, 2(R,S)-D-ribo-1',2',3',4'-Tetrahydroxybutylthiazolidine-4(R)-carboxylic Acid] | 1.7 | 61.2 ± 1.52 nmol/10^6 cells | 16.2 ± 3.60 nmol/10^6 cells | 0.5 | 100% | 12/12 | 4 | 2 | 6 | 0 | 0 | – | – | – | – | – | – | – |
| O=C(O)[C@@H]1CSC([C@H](O)[C@@H](O)[C@H](O)CO)N1 (stereo partly drawn) [XylCys, 2(R,S)-D-xylo-1',2',3',4'-Tetrahydroxybutylthiazolidine-4(R)-carboxylic Acid] | 1.6 | 58.3 ± 0.99 nmol/10^6 cells | 22.6 ± 1.84 nmol/10^6 cells | 0.8 | 60% | 6/10 | 3 | 2 | 0 | 0 | 5 | – | – | – | – | – | – | – |
